Data on four compounds can be found in patent US20240174671A1, “New 2,3-Dihydro-1H-pyrrolo[3,2-b]pyridine Derivatives as Sigma Ligands” (ACONDICIONAMIENTO TARRASENSE, priority 2021, published 2024).

Where only a bound is given, the exact number is not on record here.

By Ki is commonly meant a measure of affinity in units of concentration, obtained from inhibition or displacement.

One assay addresses T1, human σ1 receptor (Homo sapiens, UniProt Q99720).
T1 construct: expressed in transfected cells; host or cells: HEK-293
In words: Human σ1 receptor radioligand assay ([3H](+)-pentazocine). Type of assay: binding. The settings on record: transfected HEK-293 membranes, 5 nM [3H](+)-pentazocine, 37° C., 120 minutes; read-out: Binding σ-[…] (binding to σ1-receptor expressed as Ki). The procedure, abridged: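 Binding used [3H](+)-pentazocine, 120 min at 37° C, with non-specific binding defined by 10 μM haloperidol. Bound radioligand was collected by filtration, washed with ice-cold 10 mM Tris-HCl pH 7.4 and counted by scintillation.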

The target of another assay is T2, human σ2/TMEM97 receptor (Homo sapiens, UniProt Q5BJF2).
T2 construct: expressed in transfected cells; host or cells: HEK-293
In words: Binding assay to human σ2/TMEM97 receptor ([3H]-DTG). The settings on record: transfected HEK-293 membranes, 10 nM [3H]-DTG, 25° C., 120 minutes; read-out: Binding σ-[…] (binding to σ2-receptor expressed as Ki). In outline:
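Membranes from transfected HEK-293 cells incubated with 10 nM [3H]-DTG in 50 mM Tris-HCl pH 8.0, 120 min at 25 °C; non-specific binding defined with 10 μM haloperidol. Bound radioactivity counted after filtration; compounds tested as % inhibition at 1 or 10 μM or at five concentrations for Ki.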

For a further assay, the target named is sigma-2 site (Homo sapiens, UniProt Q5BJF2). Particulars: background statement; cited from earlier work.
Assay [1] relates to mechanical hypersensitivity in SNI mice. Particulars: SNI mice model of neuropathic pain; cited from earlier work.

T2 sequence (Q5BJF2 whole entry): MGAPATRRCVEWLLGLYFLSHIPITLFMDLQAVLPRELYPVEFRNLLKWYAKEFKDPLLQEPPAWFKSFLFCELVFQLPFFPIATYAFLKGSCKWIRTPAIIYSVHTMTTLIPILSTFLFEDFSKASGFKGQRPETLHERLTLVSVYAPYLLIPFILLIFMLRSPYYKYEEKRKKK
T1 sequence (Q99720 whole entry): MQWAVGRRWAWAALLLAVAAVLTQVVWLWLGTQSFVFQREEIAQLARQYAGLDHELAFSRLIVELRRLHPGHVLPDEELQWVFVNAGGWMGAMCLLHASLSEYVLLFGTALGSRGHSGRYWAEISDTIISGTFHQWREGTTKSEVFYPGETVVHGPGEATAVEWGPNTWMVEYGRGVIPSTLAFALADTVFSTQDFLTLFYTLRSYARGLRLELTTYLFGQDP
sigma-2 site, sequence (Q5BJF2 whole entry): as the sequence (Q5BJF2 whole entry) above

As to `CN(Cc1ccccc1)[C@H]1CC[C@H](C(=O)N2CC(C)(C)c3ncc(F)cc32)CC1` [Example 187, ((1r,4r)-4-(benzyl(methyl)amino)cyclohexyl)(6-fluoro-3,3-dimethyl-2,3-dihydro-1H-pyrrolo[3,2-b]pyridin-1-yl)methanone], the Ki on human σ1 receptor and at human σ2/TMEM97 receptor was under 0.1 µM each time.

Take `Cc1ccc2c(n1)C(C)(C)CN2C(=O)[C@H]1CC[C@H](NCc2ccccc2F)CC1` [Example 188, ((1r,4r)-4-((2-fluorobenzyl)amino)cyclohexyl)(3,3,5-trimethyl-2,3-dihydro-1H-pyrrolo[3,2-b]pyridin-1-yl)methanone]: the Ki at human σ1 receptor and on human σ2/TMEM97 receptor was under 0.1 µM in each case.

For the compound (+)-SKF-10047, the “affinity for the sigma-2 site” value on sigma-2 site is listed as “micromolar affinity”.

Turning to UKH-1114, the mechanical hypersensitivity result in assay [1] is given as “relieved mechanical hypersensitivity”.
